Results on one compound are retold here after patent US8932594B2, “Adjuvants and methods of use” (The Scripps Research Institute, priority 2006, dated 2015).

pKd: −log10 of the molar value.

The test system of assay [1] is splenic DCs. In words: Induction of DC maturation in vivo, FACS of splenic cells. More on the design: species or system mice. To be noted: 1 μg intravenous, 24 hours; CD11c+/CD8+ and CD11c+/CD8− cells. How it is done:
Mice were injected with α-GalCer, PBS-31 and PBS-32 and DC differentiation was examined in splenic DCs by analyzing cell surface marker expression.
Three mice in each group were injected intravenously with 1 μg lipid or vehicle alone. At 24 hours post-injection, CD1d expression was examined on splenic B cells (B220+), macrophages (CD11b+) and DCs (CD11c+) by FACS analysis using a FACScalibur machine and FlowJo analysis software.
The maturation of DCs was analyzed by measuring expression of CD40, CD80, CD86, and MHC class II on CD11c^+/CD8^+ and CD11c^+/CD8^− cells (FIG. 8). […] PBS-32 and αGalCer reached maximal induction between 0.1 and 1 μg (data not shown).
Induction of DC maturation was unaffected in MyD88^−/− and MyD88^−/−TRIF^−/− knock out animals in which the Toll-like receptor pathway is partially, or totally impaired, respectively (data not shown). The CD1d-dependence was confirmed by injecting CD1d^−/− mice with the lipids.

Assay [2] concerns the target Vα14/2Cβ TCR. To be noted: previously reported, Cantu et al. 2003; read-out: affinity of the TCR for CD1d-lipid complex; cited from earlier work.
Assay [3] concerns lymphocytic choriomeningitis virus (LCMV). Format: in vivo, C57BI/6 mice. To be noted: 1 μg intravenous before 10^6 PFU LCMVArm, day 8 post-infection, intracellular IFN-γ.
Assay [4] concerns C57BI/6 mice. The assay can be described thus: Serum cytokines after intravenous injection, ELISA. Format: in vivo. To be noted: 1 μg intravenous, at 24 hours. On the procedure:
In vivo, following intravenous injection of 1 μg of positive control compound, αGalCer, or PBS-32, IFN-γ production in the serum of C57BI/6 mice was measured by ELISA and was very similar for both compounds (2500 pg/ml and 1500 pg/ml at 24 hours, respectively). IL-4 was undetectable following PBS-32 injection. […] At eight hours post-injection, PBS-32 induced 600 pg/ml IFN-γ.

Regarding `CCCCCCCCCCCCCCCCCCCCCCCCCC(=O)N[C@@H](CO[C@H]1O[C@H](CO)[C@H](O)[C@H](O)[C@H]1O)[C@H](O)[C@H](O)CCCCCCCCCCCCCC` [αGalCer, α-galactosylceramide, reference compound], the “DC phenotype (CD40, CD80, CD86, MHC class II expression)” value in assay [1] was “mature phenotype”. For the same compound, the pKd in assay [2] was 7.52. Besides, in assay [3], the “anti-LCMV CD4+ T cell response (GP61, NP309)” value was “unchanged” and the “anti-LCMV CD8+ T cell response (GP33, NP396, GP276)” value is “significantly increase”. For the same compound, the “IFN-γ production in the serum” value in assay [4] stood at 2500 pg/mL.
